Consider eight molecules from ChEMBL document CHEMBL4428058, “Hit-to-Lead Studies for the Antimalarial Tetrahydroisoquinolone Carboxanilides” (J Med Chem, 2016).

Assay type in all cases: ADME, Microsome
Series [1] is described as follows: Half life in CD-1 mouse liver microsomes in presence of NADPH by UPLC-MS analysis. Particulars: for t1/2: mouse, microsomes. (Microsomes from liver hold many membrane-bound enzymes, among them those of drug oxidation.)
Series [2] in a line: Drug metabolism in CD-1 mouse liver microsomes assessed as (3S,4S)-N-(3-chloro-4-hydroxyphenyl)-2-isobutyl-1-oxo-3-(thiophen-2-yl)-1,2,3,4-tetrahydroisoquinoline-4-carboxamide formation.
Series [3] is described as follows: Drug metabolism in CD-1 mouse liver microsomes assessed as oxidation at N-2 isobutyl group.
Series [4] can be described thus: Drug level in CD-1 mouse liver microsomes treated with (3S,4S)-N-(3-cyanophenyl)-2-isobutyl-1-oxo-3-(thiophen-2-yl)-1,2,3,4-tetrahydroisoquinoline-4-carboxamide.
Series [5] is described as follows: Drug level in CD-1 mouse liver microsomes treated with (3S,4S)-N-(3-chloro-4-methoxyphenyl)-2-isobutyl-1-oxo-3-(thiophen-2-yl)-1,2,3,4-tetrahydroisoquinoline-4-carboxamide.
A short description of series [6]: Drug metabolism in CD-1 mouse liver microsomes assessed as ((3S,4S)-N-(3-hydroxyphenyl)-2-isobutyl-1-oxo-3-(thiophen-2-yl)-1,2,3,4-tetrahydroisoquinoline-4-carboxamide formation.

Turning to `CC(C)CN1C(=O)c2ccccc2[C@H](C(=O)Nc2ccc(F)c(C#N)c2)[C@H]1c1ccc(C#N)s1` (racemic), the t1/2 in series [1] came out at 72.6 min.

For the molecule `CC(C)CN1C(=O)c2ccccc2[C@H](C(=O)Nc2ccc(F)c(C#N)c2)[C@H]1c1cn[nH]c1` (racemic), the t1/2 in series [1] was determined as 19.8 min.

For `N#Cc1cc(NC(=O)[C@H]2c3ccccc3C(=O)N(CC(F)(F)F)[C@@H]2c2cccnc2)ccc1F` (relative stereo) [SJ-733], the t1/2 in series [1] worked out at 97.8 min.

On to `N#Cc1cc(NC(=O)[C@H]2c3ccccc3C(=O)N(CC(F)(F)F)[C@@H]2c2cn[nH]c2)ccc1F` (relative stereo), for which the t1/2 in series [1] was > 240 min.

Consider `COc1ccc(NC(=O)[C@H]2c3ccccc3C(=O)N(CC(C)C)[C@@H]2c2cccs2)cc1Cl` (racemic), for which the Drug metabolism result in series [2] and in series [3] was “Metabolite_Detected” each time. The half-life in series [1] (CD-1, mouse, liver microsomes) was < 30 min.

On to `CC(C)CN1C(=O)c2ccccc2[C@H](C(=O)Nc2cccc(O)c2)[C@H]1c1cccs1` (relative stereo), for which the Drug metabolism result in series [4] was “Metabolite_Detected”.

Regarding `CC(C)CN1C(=O)c2ccccc2[C@H](C(=O)Nc2ccc(O)c(Cl)c2)[C@H]1c1cccs1` (relative stereo), the Drug metabolism entry in series [5] is reported as “Metabolite_Detected”.

For the molecule `CC(C)CN1C(=O)c2ccccc2[C@H](C(=O)Nc2cccc(C#N)c2)[C@H]1c1cccs1` (racemic), the Drug metabolism result in series [6] and in series [3] was “Metabolite_Detected” each time. Besides, the t1/2 in series [1] stood at 16.8 min.

As a reminder, the half-life is the time in which the quantity being followed falls by half.
